Assay results as given in US10815222B2, “Compounds for use in the treatment of kinetoplastid infection” (C.N.C.C.S. S.c.a.r.l. COLLEZIONE NAZIONALE DEI COMPOSTI …, priority 2016, dated 2020).

Each compound was assayed on Bloodstream form of Trypanosoma brucei, strain Lister 427 (assay: Trypanosoma brucei growth inhibition assay (CellTiter-Glo, 24 h)). Details: Trypanosoma brucei; T. Brucei Growth Inibition Assay, class symbols; read-out: T. Brucei GI EC50.
Type: cell-based
Outline: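 Growth read-out was CellTiter-Glo luminescence after 24 h at 37 °C incubation of 1500 bloodstream-form Lister 427 trypanosomes per well with compound, in supplemented IMDM containing 10% FBS and at most 0.25% DMSO.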

Compound	EC50 [nM]
COc1ccc2nc(C(F)(F)F)n(CC(=O)N3CC[C@H](NCc4cnccn4)C[C@H]3c3ncc(-c4cc5ccccc5nc4OC)[nH]3)c2c1 [2-(6-methoxy-2-(trifluoromethyl)-1H-benzo[d]imidazol-1-yl)-1-((2S,4S)-2-(5-(2-methoxyquinolin-3-yl)-1H-imidazol-2-yl)-4-((pyrazin-2-ylmethyl)amino)piperidin-1-yl)ethan-1-one]	< 100
COc1ccc2nc(C(F)(F)F)n(CC(=O)N3CC[C@H](NCc4ccccn4)C[C@H]3c3ncc(-c4cc5ccccc5nc4OC)[nH]3)c2c1 [2-(6-methoxy-2-(trifluoromethyl)-1H-benzo[d]imidazol-1-yl)-1-((2S,4S)-2-(5-(2-methoxyquinolin-3-yl)-1H-imidazol-2-yl)-4-((pyridin-2-ylmethyl)amino)piperidin-1-yl)ethan-1-one]	< 100
COc1ccc2nc(C(F)(F)F)n(CC(=O)N3CC[C@H](NC4CCOC4)C[C@H]3c3ncc(-c4cc5ccccc5nc4OC)[nH]3)c2c1 (stereo partly drawn) [2-(6-methoxy-2-(trifluoromethyl)-1H-benzo[d]imidazol-1-yl)-1-((2S,4S)-2-(5-(2-methoxyquinolin-3-yl)-1H-imidazol-2-yl)-4-((tetrahydrofuran-3-yl)amino)piperidin-1-yl)ethan-1-one]	< 100
COc1ccc2nc(C(F)(F)F)n(CC(=O)N3CC[C@H](NCc4nccs4)C[C@H]3c3ncc(-c4cc5ccccc5nc4OC)[nH]3)c2c1 [2-(6-methoxy-2-(trifluoromethyl)-1H-benzo[d]imidazol-1-yl)-1-((2S,4S)-2-(5-(2-methoxyquinolin-3-yl)-1H-imidazol-2-yl)-4-((thiazol-2-ylmethyl)amino)piperidin-1-yl)ethan-1-one]	< 100
COc1ccc2nc(C(F)(F)F)n(CC(=O)N3CC[C@H](N(C)C4CCOC4)C[C@H]3c3ncc(-c4cc5ccccc5nc4OC)[nH]3)c2c1 (stereo partly drawn) [2-(6-methoxy-2-(trifluoromethyl)-1H-benzo[d]imidazol-1-yl)-1-((2S,4S)-2-(5-(2-methoxyquinolin-3-yl)-1H-imidazol-2-yl)-4-(methyl(tetrahydrofuran-3-yl)amino)piperidin-1-yl)ethan-1-one]	< 100
COc1ccc2nc(C(F)(F)F)n(CC(=O)N3CC[C@H](N(C)Cc4nccs4)C[C@H]3c3ncc(-c4cc5ccccc5nc4OC)[nH]3)c2c1 [2-(6-methoxy-2-(trifluoromethyl)-1H-benzo[d]imidazol-1-yl)-1-((2S,4S)-2-(5-(2-methoxyquinolin-3-yl)-1H-imidazol-2-yl)-4-(methyl(thiazol-2-ylmethyl)amino)piperidin-1-yl)ethan-1-one]	< 100
COc1ccc2nc(C(F)(F)F)n(CC(=O)N3CC[C@H](NC4COC4)C[C@H]3c3ncc(-c4cc5ccccc5nc4OC)[nH]3)c2c1 [2-(6-methoxy-2-(trifluoromethyl)-1H-benzo[d]imidazol-1-yl)-1-((2S,4S)-2-(5-(2-methoxyquinolin-3-yl)-1H-imidazol-2-yl)-4-(oxetan-3-ylamino)piperidin-1-yl)ethan-1-one]	< 100
COc1ccc2nc(C(F)(F)F)n(CC(=O)N3CC[C@H](N4CCCC4)C[C@H]3c3ncc(-c4cc5ccccc5nc4OC)[nH]3)c2c1 [2-(6-methoxy-2-(trifluoromethyl)-1H-benzo[d]imidazol-1-yl)-1-((2S,4S)-2-(5-(2-methoxyquinolin-3-yl)-1H-imidazol-2-yl)-4-(pyrrolidin-1-yl)piperidin-1-yl)ethan-1-one]	< 100
COc1ccc2nc(C(F)(F)F)n(CC(=O)N3CC[C@H](N4CCOCC4)C[C@H]3c3ncc(-c4cc5ccccc5nc4OC)[nH]3)c2c1 [2-(6-methoxy-2-(trifluoromethyl)-1H-benzo[d]imidazol-1-yl)-1-((2S,4S)-2-(5-(2-methoxyquinolin-3-yl)-1H-imidazol-2-yl)-4-morpholinopiperidin-1-yl)ethan-1-one]	< 100
COc1ccc2nc(C(F)(F)F)n(CC(=O)N3CC[C@H](NC4CC(OC)C4)C[C@H]3c3ncc(-c4cc5ccccc5nc4OC)[nH]3)c2c1 (stereo partly drawn) [2-(6-methoxy-2-(trifluoromethyl)-1H-benzo[d]imidazol-1-yl)-1-((2S,4S)-4-((3-methoxycyclobutyl)amino)-2-(5-(2-methoxyquinolin-3-yl)-1H-imidazol-2-yl)piperidin-1-yl)ethan-1-one]	< 100
COc1ccc2nc(C(F)(F)F)n(CC(=O)N3C[C@H](NC4CCOC4)CC[C@H]3c3ncc(-c4cc5ccccc5nc4OC)[nH]3)c2c1 (stereo partly drawn) [2-(6-methoxy-2-(trifluoromethyl)-1H-benzo[d]imidazol-1-yl)-1-((2S,5R)-2-(5-(2-methoxyquinolin-3-yl)-1H-imidazol-2-yl)-5-((tetrahydrofuran-3-yl)amino)piperidin-1-yl)ethan-1-one]	< 100
COc1ccc2nc(C)n(CC(=O)N3CCN(Cc4ccn(C)n4)CCC3c3ncc(-c4cc5ccccc5nc4OC)[nH]3)c2c1 (centres unmarked) [2-(6-methoxy-2-methyl-1H-benzo[d]imidazol-1-yl)-1-(7-(5-(2-methoxyquinolin-3-yl)-1H-imidazol-2-yl)-4-((1-methyl-1H-pyrazol-3-yl)methyl)-1,4-diazepan-1-yl)ethan-1-one]	< 100
COc1ccc2nc(C)n(CC(=O)N3CCN(Cc4nccs4)CCC3c3ncc(-c4cc5ccccc5nc4OC)[nH]3)c2c1 (centres unmarked) [2-(6-methoxy-2-methyl-1H-benzo[d]imidazol-1-yl)-1-(7-(5-(2-methoxyquinolin-3-yl)-1H-imidazol-2-yl)-4-(thiazol-2-ylmethyl)-1,4-diazepan-1-yl)ethan-1-one]	< 100
COc1ccc2nc(C)n(CC(=O)N3CCN(CC4CCOC4)C[C@H]3c3ncc(-c4cc5ccccc5nc4OC)[nH]3)c2c1 (stereo partly drawn) [2-(6-methoxy-2-methyl-1H-benzo[d]imidazol-1-yl)-1-((2S)-2-(5-(2-methoxyquinolin-3-yl)-1H-imidazol-2-yl)-4-((tetrahydrofuran-3-yl)methyl)piperazin-1-yl)ethan-1-one]	< 100
COc1ccc2nc(C)n(CC(=O)N3CCN(CC4CCOC4)C[C@H]3c3ncc(/C=C/c4ccccc4)[nH]3)c2c1 (stereo partly drawn) [2-(6-methoxy-2-methyl-1H-benzo[d]imidazol-1-yl)-1-((2S)-2-(5-((E)-styryl)-1H-imidazol-2-yl)-4-((tetrahydrofuran-3-yl)methyl)piperazin-1-yl)ethan-1-one]	1010 to 5000
COc1ccc2nc(C)n(CC(=O)N3CCN(CC4CCOC4)C[C@H]3c3ncc(C#Cc4ccccn4)[nH]3)c2c1 (stereo partly drawn) [2-(6-methoxy-2-methyl-1H-benzo[d]imidazol-1-yl)-1-((2S)-2-(5-(pyridin-2-ylethynyl)-1H-imidazol-2-yl)-4-((tetrahydrofuran-3-yl)methyl)piperazin-1-yl)ethan-1-one]	1010 to 5000
COc1ccc2nc(C)n(CC(=O)N3CC[C@H](N4CCOCC4)C[C@H]3c3ncc(-c4cc5ccccc5nc4OC)[nH]3)c2c1 [2-(6-methoxy-2-methyl-1H-benzo[d]imidazol-1-yl)-1-((2S,4S)-2-(5-(2-methoxyquinolin-3-yl)-1H-imidazol-2-yl)-4-morpholinopiperidin-1-yl)ethan-1-one]	100 to 500
COc1ccc2cc(C)n(CC(=O)N3CCN(Cc4ccn(C)n4)CCC3c3ncc(-c4cc5ccccc5nc4OC)[nH]3)c2c1 (centres unmarked) [2-(6-methoxy-2-methyl-1H-indol-1-yl)-1-(7-(5-(2-methoxyquinolin-3-yl)-1H-imidazol-2-yl)-4-((1-methyl-1H-pyrazol-3-yl)methyl)-1,4-diazepan-1-yl)ethan-1-one]	< 100
COc1ccc2cc(C)n(CC(=O)N3CCN(CC4CCOC4)C[C@H]3c3ncc(-c4cc5ccccc5nc4OC)[nH]3)c2c1 (stereo partly drawn) [2-(6-methoxy-2-methyl-1H-indol-1-yl)-1-((2S)-2-(5-(2-methoxyquinolin-3-yl)-1H-imidazol-2-yl)-4-((tetrahydrofuran-3-yl)methyl)piperazin-1-yl)ethan-1-one]	< 100
COc1nc2ccccc2cc1-c1cnc(C2CN(S(=O)(=O)N(C)C)CCN2C(=O)Cc2c(C)[nH]c3ccc(F)cc23)[nH]1 (centres unmarked) [4-(2-(5-fluoro-2-methyl-1H-indol-3-yl)acetyl)-3-(5-(2-methoxyquinolin-3-yl)-1H-imidazol-2-yl)-N,N-dimethylpiperazine-1-sulfonamide]	1010 to 5000
COc1ccc2[nH]c(C)c(CC(=O)N3CC(=O)N(C)CC3c3ncc(-c4ccc5ccccc5c4)[nH]3)c2c1 (centres unmarked) [4-(2-(5-methoxy-2-methyl-1H-indol-3-yl)acetyl)-1-methyl-5-(5-(naphthalen-2-yl)-1H-imidazol-2-yl)piperazin-2-one]	510 to 1000
CCC(=O)CCCN1CCN(S(=O)(=O)c2ccccc2)C(c2ncc(-c3ccc4ccccc4c3)[nH]2)C1 (centres unmarked) [6-(3-(5-(naphthalen-2-yl)-1H-imidazol-2-yl)-4-(phenylsulfonyl)piperazin-1-yl)hexan-3-one]	1010 to 5000
CCC(=O)CCCN1CCN(C(=O)Cc2c(C)[nH]c3ccc(OC)cc23)C(c2ncc(-c3ccc4ccccc4c3)o2)C1 (centres unmarked) [6-(4-(2-(5-methoxy-2-methyl-1H-indol-3-yl)acetyl)-3-(5-(naphthalen-2-yl)oxazol-2-yl)piperazin-1-yl)hexan-3-one]	1010 to 5000
CCC(=O)CCCN1CCN(C(=O)c2ccccc2)C(c2ncc(-c3ccc4ccccc4c3)[nH]2)C1 (centres unmarked) [6-(4-benzoyl-3-(5-(naphthalen-2-yl)-1H-imidazol-2-yl)piperazin-1-yl)hexan-3-one]	1010 to 5000
CCC(=O)CCCN1CCN(Cc2ccccc2)C(c2ncc(-c3ccc4ccccc4c3)[nH]2)C1 (centres unmarked) [6-(4-benzyl-3-(5-(naphthalen-2-yl)-1H-imidazol-2-yl)piperazin-1-yl)hexan-3-one]	1010 to 5000
COc1ccc2nc(C(F)(F)F)n(CC(=O)N3CCS(=O)(=O)C[C@H]3c3ncc(-c4cc5ccccc5nc4OC)[nH]3)c2c1 [(R)-2-(6-methoxy-2-(trifluoromethyl)-1H-benzo[d]imidazol-1-yl)-1-(3-(5-(2-methoxyquinolin-3-yl)-1H-imidazol-2-yl)-1,1-dioxidothiomorpholino)ethan-1-one]	100 to 500
